Where “and” joins values, the source holds several entries; their conditions need not be identical. Equal values may be shown once.
What was measured:
BxPC-3 cells = experiment: BxPC-3 apoptosis by flow cytometry (PI staining); type: cell-based; settings: 48 hours
Description: BxPC-3 cells were treated with cromolyn (10 μM) with (+) or without (−) gemcitabine (10 μM), and apoptosis was analyzed after 48 hours by flow cytometry. *, P<0.001 versus control, #, P=0.001 versus gemcitabine. Means and 95% confidence intervals of three independent experiments performed in triplicate are shown. Two-tailed two-sample (unpaired) Student's t-tests were used to determine P values. Standard propidium iodide (PI) staining by the hypotonic lysis method was used for apoptosis studies. Apoptosis was induced in 1.0×10^6 BxPC-3 cells by treatment with gemcitabine (10 μM), with or without cromolyn. After 48 hours the cells were detached from culture dishes by incubation in 0.05% trypsin-EDTA, washed once with cold PBS, and then incubated for 30 minutes in 500 μL of hypotonic solution (0.1% sodium citrate, 0.1% Triton X-100, 100 μg/mL RNAse, and 50 μg/mL PI), and analyzed by flow cytometry (EPICS XL, Beckman Coulter Inc, Fullerton, Calif.). Cells undergoing apoptosis that had lost part of their DNA were identified as the population of cells with sub-G1 DNA content. These assays were performed three times.

MPanc-96 tumors = experiment: MPanc-96 orthotopic tumor growth and metastasis in scid mice; type: in vivo; settings: MPanc-96 model; for lung metastasis, mean: control 5.9×10^7; for liver metastasis, mean: control 9.4×10^8; for tumor burden, mean: gemcitabine 125 mg/kg bi-weekly i.p., cromolyn 5 mg/kg daily i.p., end of six weeks, control 1.1×10^10
Description: FIGS. 5A-5F show the effect of cromolyn on MPanc-96 tumor growth and metastasis in vivo. MPanc-96 cells stably expressing the firefly luciferase gene were injected orthotopically into 4-week-old male CB 17 scid mice. […] Mice were divided into four groups of five mice each with an equivalent mean tumor size between groups. […] One group was treated with water (control), one group received gemcitabine bi-weekly (125 mg per kg body weight bi-weekly by intraperitoneal injection), one group was administered cromolyn daily (5 mg per kg body weight daily by intraperitoneal injection), and the final group was given the combination of cromolyn and gemcitabine. All groups were treated for six weeks. Bioluminescent imaging was done weekly to assess tumor growth. […] Means and 95% confidence intervals from two independent experiments are shown (n=20). Two-tailed two-sample (unpaired) Student's t-tests were used to determine P values. The anti-tumorigenic capability of the drug cromolyn was assessed in 4-week-old male CB 17 scid mice (n=20) carrying orthopic tumors of BxPC-3, MPanc96, and Panc-1 cells stably expressing a Lenti-luc reporter. All mouse experiments were reviewed and approved by the Institutional Animal Care and Use Committee of UT MD Anderson Cancer Center. All mice were maintained in a sterile environment. Cages, bedding, food, and water were all autoclaved. All mice were maintained on a daily 12-hour light/12-hour dark cycle, according to the institutional animal welfare guidelines. BxPC-3, MPanc96, and Pane-1 cells carrying the Lenti-luc reporter gene were grown to 80% confluence, harvested by incubation with trypsin-EDTA, washed twice in PBS, and resuspended to a final concentration of 4.0×10^6 cells/mL. Each mouse (n=20 mice per cell line) was injected (into the pancreas) with cell suspensions (50 μL). Bioluminescent imaging to determine tumor volume was performed 1 week after injection because the tumors became established within this amount of time. This initial tumor volume was used to divide the mice into four groups of five mice each, such that the mean tumor size was equal between groups (FIGS. 4A, 5A, and 6A). To allow enough time to observe differences among treatment groups, the mice were followed for the next 5 weeks. One group of mice was then treated biweekly with a sub-maximal concentration of gemcitabine (125 mg per kg body weight by i.p. injection). A second group was treated with a daily injection of cromolyn (5 mg per kg body weight by i.p. injection). A third group was treated with both bi-weekly gemcitabine and daily cromolyn. The control group was treated daily with vehicle. Treatments were continued for 5 weeks, and the effects on the tumor burden and metastasis were analyzed by weekly bioluminescence imaging (FIGS. 4B, 5B, and 6B). At the end of the experiment the mice were anesthetized with 1.5% isofluorane/air mixture and killed by cervical dislocation. Bioluminescence imaging was conducted using a cryogenically cooled IVIS 100 imaging system coupled to a data acquisition computer running Living Image software (Xenogen Corp., Alameda, Calif.). Before imaging, mice were placed in an acrylic chamber, anesthetized with 1.5% isofluorane/air mixture, and injected i.p. with 15 mg/mL of luciferin potassium salt in PBS at a dose of 150 mg per kg body weight. A digital grey scale image of each mouse was acquired, followed by acquisition and overlay of a pseudocolor image representing the spatial distribution of detected photons emerging from active luciferase within the mouse. Tumor volume was quantified as the sum of all detected photons within the region of the tumor per second. At the end of experiment, the mice were killed, and tumors were surgically removed and weighed. After the primary tumors were removed, cancer cell dissemination and metastasis was visualized using IVIS imaging, and metastatic colonies were counted. […]

Compound	cell apoptosis, cromolyn alone (BxPC-3 cells; cromolyn 10 μM)	liver metastasis, difference versus control (MPanc-96 tumors)	lung metastasis, difference versus control (MPanc-96 tumors)	tumor burden, difference versus control (MPanc-96 tumors)	lung metastasis, mean (MPanc-96 tumors)	liver metastasis, mean (MPanc-96 tumors)	tumor burden, mean (MPanc-96 tumors)	effect on body weight (in words) (MPanc-96 tumors; up to 6 weeks)	apoptotic cells, difference versus control (BxPC-3 cells; gemcitabine 10 μM)	apoptotic cells, mean (BxPC-3 cells; gemcitabine 10 μM, control 3.7%)
O=C(O)c1cc(=O)c2c(OCC(O)COc3cccc4oc(C(=O)O)cc(=O)c34)cccc2o1 [cromolyn, disodium 1,3-bis[(2′-carboxylatochromon-5′-yl)oxy]-2-hydroxypropane]	no statistically significant effect	7.2×10^8 photons/sec	5.6×10^7 photons/sec	6.2×10^9 photons/sec	3.2×10^6 photons/sec	2.2×10^8 photons/sec	4.8×10^9 photons/sec	no effect		
Nc1ccn([C@@H]2O[C@H](CO)[C@@H](O)C2(F)F)c(=O)n1 [gemcitabine]		8.1×10^8 photons/sec	5.4×10^7 photons/sec	6.9×10^9 photons/sec	5.0×10^6 photons/sec	1.2×10^8 photons/sec	4.1×10^9 photons/sec		27.3%	31.0% and 30.8%

— US20110195924A1, “Methods of Inhibiting the Interaction Between S100P and the Receptor for Advanced Glycation End-Products” (priority 2008, published 2011)
